# From US20210355106A1, “NEW AMINO-PYRIMIDONYL-PIPERIDINYL DERIVATIVES, A PROCESS FOR THEIR PREPARATION AND PHARMACEUTICAL COMPOSITIONS CONTAINING THEM” (LES LABORATOIRES SERVIER, priority 2018, published 2021)
# Columns and labels:
# [1] = tested on: Z138 mantle cell lymphoma tumour cell lines; assay: In vitro cytotoxicity, MTT assay; type: cell-based; details: Z138 cells, exposed to the test compounds for 96 hours
# Protocol: The cytotoxicity studies were evaluated by MTT [3-(4,5-dimethylthiaxol-2-yl)-2,5-diphenyltetrazolium bromide|assay and carried out on Z138 mantle cell lymphoma tumour cell lines. The cells are distributed onto microplates and exposed to the test compounds for 96 hours. MTT is then added for 4 hours and converted by NAD(P)H-dependent cellular oxidoreductase enzymes in forma/an, which has a purple color. The viable cell number is proportional to the production of formazan salts and cell viability can be quantified by the absorbance of the solution at 540 nm with a spectrophotometer (Carmichael et al., Cancer Res. 1987, 47, 936-942).
# USP7 = molecular target: T1, USP7 (Homo sapiens, UniProt Q93009, C315A); assay: Inhibition of USP7 by Fluorescence Intensity (FLINT) readings, Ubiquitin-Rhodamine-110 substrate; type: biochemical; details: 0.25 nM His-His-USP7 (aa208-560), 60 minutes at 30° C. preincubation; Ki determined from IC50 according to Cer et al.
# T1 construct: 0.25 nM His-His-USP7 (aa208-560, |C315A|) was incubated with compound; His-His (N)
# T1 sequence (Q93009 208-560 C315A): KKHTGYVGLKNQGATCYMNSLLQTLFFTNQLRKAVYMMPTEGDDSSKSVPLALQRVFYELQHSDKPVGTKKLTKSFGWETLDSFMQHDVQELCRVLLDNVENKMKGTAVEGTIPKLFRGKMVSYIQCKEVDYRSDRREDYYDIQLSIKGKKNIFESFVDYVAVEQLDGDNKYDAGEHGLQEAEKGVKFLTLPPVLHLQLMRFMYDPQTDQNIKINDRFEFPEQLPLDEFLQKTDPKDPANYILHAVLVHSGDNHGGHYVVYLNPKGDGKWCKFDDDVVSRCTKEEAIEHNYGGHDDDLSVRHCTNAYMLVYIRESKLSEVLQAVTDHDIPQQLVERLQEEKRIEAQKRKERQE
# In short: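 Kinetic rate of Rhodamine-110 release from ubiquitin substrate (50 nM or 4 μM), read every 3 min for 21 min, after 60 min, 30 °C preincubation of 0.25 nM USP7 catalytic domain C315A with compound. Bicine pH 8.0 buffer, 10% DMSO; 11-point IC50 vs DMSO and no-enzyme controls, converted to Ki.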
Ki (USP7),Molecule,"IC50 ([1]; Homo sapiens, Z-138)",IC50 [1]
19 nM,COc1ccc(NC(=O)N2CC[C@@H](C(=O)N3CCC(O)(Cn4cnc(Oc5ccc(F)cc5)c(N)c4=O)CC3)[C@H](c3ccccc3)C2)cc1 [Example 80],6.2 nM,–
45 nM,Cc1ccccc1C1(N2CC[C@@H](C(=O)N3CCC(O)(Cn4cnc(Oc5ccc(F)cc5)c(N)c4=O)CC3)[C@H](c3ccccc3)C2)COC1 [Example 138],24 nM,–
9.9 nM,"Cc1ccc(-c2cccc(NC(=O)N3CC[C@@H](C(=O)N4CCC(O)(Cn5cnc(Oc6ccc(F)cc6)c(N)c5=O)CC4)[C@H](c4ccccc4)C3)c2)cn1 [Example 85, (3R,4R)-4-[4-[[5-amino-4-(4-fluorophenoxy)-6-oxo-pyrimidin-1-yl]methyl]-4-hydroxy-piperidine-1-carbonyl]-N-[3-(6-methyl-3-pyridyl)phenyl]-3-phenyl-piperidine-1-carboxamide]",34 nM,–
14 nM,Cn1c(C(=O)N2CC[C@@H](C(=O)N3CCC(O)(Cn4cnc(Oc5ccc(F)cc5)c(N)c4=O)CC3)[C@H](c3ccccc3)C2)ccc1-c1ccccc1 [Example 38],11 nM,–
20 nM,Nc1c(Oc2ccc(F)cc2)ncn(CC2(O)CCN(C(=O)[C@@H]3CCN(C(=O)Nc4ccccc4F)C[C@H]3c3ccccc3)CC2)c1=O [Example 89],26 nM,–
11.3 nM,"Nc1c(Oc2ccc(F)cc2)ncn(CC2(O)CCN(C(=O)[C@@H]3CCN(C(=O)c4cncc(-c5ccccc5)c4)C[C@H]3c3ccccc3)CC2)c1=O [Example 35, 5-amino-6-(4-fluorophenoxy)-3-({4-hydroxy-1-[(3R,4R)-3-phenyl-1-(5-phenylpyridine-3-carbonyl)piperidine-4-carbonyl]piperidin-4-yl}methyl)pyrimidin-4(3H)-one]",5 nM,–
42 nM,Nc1c(Oc2ccc(F)cc2)ncn(CC2(O)CCN(C(=O)[C@@H]3CCN(C(=O)Nc4cccc(Br)c4)C[C@H]3c3ccccc3)CC2)c1=O [Example 83],8.5 nM,–
4.83 nM,"Cc1cncc(C(=O)N2CC[C@@H](C(=O)N3CC[C@](O)(Cn4cnc(Oc5ccc(F)cc5)c(N)c4=O)C(F)(F)C3)[C@H](c3ccccc3)C2)c1 [Example 157, 5-amino-3-[[(4S)-3,3-difluoro-4-hydroxy-1-[(3R,4R)-1-(5-methylpyridine-3-carbonyl)-3-phenyl-piperidine-4-carbonyl]-4-piperidyl]methyl]-6-(4-fluorophenoxy)pyrimidin-4-one]",5.18 nM,–
75.9 nM,Nc1c(Oc2ccc(F)cc2)ncn(CC2(O)CCN(C(=O)[C@@H]3CCN(C(=S)Nc4ccccc4)C[C@H]3c3ccccc3)CC2)c1=O [Example 60],128 nM,–
4.19 nM,Cc1ccc(-c2cc(F)c(C(=O)N3CC[C@@H](C(=O)N4CCC(O)(Cn5cnc(Oc6ccc(F)cc6)c(N)c5=O)CC4)[C@H](c4ccccc4)C3)s2)cn1 [Example 40],1.7 nM,–

# Second part, the molecule before the results:
Molecule,Ki (USP7),"IC50 ([1]; Homo sapiens, Z-138)",IC50 [1]
"COc1cc(Oc2ncn(C[C@@]3(O)CCN(C(=O)[C@@H]4CCN(Cc5ncccn5)C[C@H]4c4ccccc4)CC3(F)F)c(=O)c2N)ccc1F [Example 215, 5-amino-3-[[(4S)-3,3-difluoro-4-hydroxy-1-[(3R,4R)-3-phenyl-1-(pyrimidin-2-ylmethyl)piperidine-4-carbonyl]-4-piperidyl]methyl]-6-(4-fluoro-3-methoxy-phenoxy)pyrimidin-4-one]",54.1 nM,24.6 nM,–
Nc1c(Oc2ccc(F)cc2)ncn(C[C@@]2(O)CCN(C(=O)[C@@H]3CCN(C(=O)Nc4ccccc4)C[C@H]3c3ccccc3)CC2(F)F)c1=O [Example 77],37 nM,13 nM,–
COc1cc(Oc2ncn(CC3(O)CCN(C(=O)[C@@H]4CCN(C(=O)c5sc(-c6ccc(C)nc6)nc5C)C[C@H]4c4ccccc4)CC3)c(=O)c2N)ccc1F [Example 25],2.9 nM,2.3 nM,–
"Cc1nccc(CN2CC[C@@H](C(=O)N3CC[C@](O)(Cn4cnc(Oc5cccc(C(F)(F)F)c5)c(N)c4=O)C(F)(F)C3)[C@H](c3ccccc3)C2)n1 [Example 143, 5-amino-3-[[(4S)-3,3-difluoro-4-hydroxy-1-[(3R,4R)-1-[(2-methylpyrimidin-4-yl)methyl]-3-phenyl-piperidine-4-carbonyl]-4-piperidyl]methyl]-6-(3-(trifluoromethyl)phenoxy]pyrimidin-4-one]",42 nM,217 nM,–
"5-amino-3-[(3SR,4SR)-3-fluoro-4-hydroxy-1-(3R,4R)-1-[4-methyl-2-(6-methyl-3-pyridyl)thiazole-5-carbonyl]-3-phenyl-piperidine-4-carbonyl]-4-piperidyl]methyl]-6-(4-fluorophenoxy)pyrimidin-4-one and 5-amino-3-[[(3RS,4RS)-3-fluoro-4-hydroxy-1-[(3R,4R)-1-[4-methyl-2-(6-methyl-3-pyridyl)thiazole-5-carbonyl]-3-phenyl-piperidine-4-carbonyl]-4-piperidyl]methyl]-6-(4-fluorophenoxy)pyrimidin-4-one [Example 198]",10.7 nM,–,3.14 nM
"Cc1nc(C2CCCNC2)sc1C(=O)N1CC[C@@H](C(=O)N2CCC(O)(Cn3cnc(Oc4ccc(F)cc4)c(N)c3=O)CC2)[C@H](c2ccccc2)C1 (stereo partly drawn) [Example 172, 5-amino-6-(4-fluorophenoxy)-3-[[4-hydroxy-1-[(3R,4R)-1-[4-methyl-2-(3-piperidyl)thiazole-5-carbonyl]-3-phenyl-piperidine-4-carbonyl]-4-piperidyl]methyl]pyrimidin-4-one]",7.64 nM,385 nM,–
COc1cc(Oc2ncn(C[C@@]3(O)CCN(C(=O)[C@@H]4CCN(Cc5nc(C)cc(C)n5)C[C@H]4c4ccccc4)CC3(F)F)c(=O)c2N)ccc1F [Example 217],42.6 nM,23.1 nM,–
"Nc1c(Oc2ccc(F)cc2)ncn(CC2(O)CCN(C(=O)[C@@H]3CCN(C4(c5cccc(F)c5)COC4)C[C@H]3c3ccccc3)CC2)c1=O [Example 153, 5-amino-6-(4-fluorophenoxy)-3-[[1-[(3R,4R)-1-[3-(3-fluorophenyl)oxetan-3-yl]-3-phenyl-piperidine-4-carbonyl]-4-hydroxy-4-piperidyl]methyl]pyrimidin-4-one]",28.7 nM,62 nM,–
"Cc1nc(C2CCCC2)sc1C(=O)N1CC[C@@H](C(=O)N2CCC(O)(Cn3cnc(Oc4ccc(F)cc4)c(N)c3=O)CC2)[C@H](c2ccccc2)C1 [Example 161, 5-amino-3-[[1-[(3R,4R)-1-(2-cyclopentyl-4-methyl-thiazole-5-carbonyl)-3-phenyl-piperidine-4-carbonyl]-4-hydroxy-4-piperidyl]methyl]-6-(4-fluorophenoxy)pyrimidin-4-one]",10.1 nM,3.63 nM,–
Nc1c(Oc2ccc(F)cc2)ncn(C[C@@]2(O)CCN(C(=O)[C@@H]3CCN(Cc4cccnn4)C[C@H]3c3ccccc3)CC2(F)F)c1=O [Example 203],47.1 nM,33 nM,–
"Cc1nc(N2CCCC2)sc1C(=O)N1CC[C@@H](C(=O)N2CCC(O)(Cn3cnc(Oc4ccc(F)cc4)c(N)c3=O)CC2)[C@H](c2ccccc2)C1 [Example 65, 5-amino-6-(4-fluorophenoxy)-3-[(4-hydroxy-1-{(3R,4R)-1-[4-methyl-2-(pyrrolidin-1-yl)-1,3-thiazole-5-carbonyl]-3-phenylpiperidine-4-carbonyl]piperidin-4-yl)methyl]pyrimidin-4(3H)-one]",4.2 nM,7.66 nM,–
